Columns and labels:
[1] = tested on: IFN-γ-induced PD-L1 expression in SK-MEL-28 cells; test: 10-point dose response validation of IFN-γ-induced PD-L1 signal; format: cell-based, human; details: 48 h; for IFN-γ-induced PD-L1 signal: SK-MEL-28, 10-point dose response 9.8-5000 nM, FIG. 1A-D; for concentration required to inhibit IFN-γ-induced PD-L1 expression compared with concentration required to affect cell proliferation: SK-MEL-28, IFN-γ 50 ng/ml, FIG. 2A-E
Method: FIG. 1A-D. Validation dose response curves of HSP90 inhibitors tested in the original screen. A) CNF2024; B) PF04928473; C) tanespimycin; D) HSP-990. SK-MEL-28 cells treated with IFN-γ and with the indicated HSP90 inhibitor at different concentrations. Cells were assayed for cell viability (square, % viability on left axis) and PD-L1 expression (circle, Z-score right axis) at 48 h after treatment of IFN-γ and/or HSP90 inhibitors. Quadruplicate wells were used for determination of cell viability and PD-L1 expression. Average values were plotted. […] Lysates were probed with anti PD-L1 antibody.
(§1) FIG. 2A-E. Dose response curves of 5 additional HSP90 inhibitors. A) STA-9090, B) CUDC-305, C) MPC-3100, D) XL-888 and E) TAS-116. SK-MEL-28 cells treated with IFN-γ (50 ng/ml) and with the indicated HSP90 inhibitor at different concentrations. Cells were assayed for cell viability (square, % viability on left axis) and PD-L1 expression (circle, Z-score right axis) at 48 h after treatment of IFN-γ and/or HSP inhibitors. Quadruplicate wells were used for determination of cell viability and PD-L1 expression. Average values were plotted.
After assessment for viability, plates were then prepared for immunostaining. Briefly, 16% paraformaldehyde (Electron Microscopy Sciences) was added to each well to a final concentration of 4%, for 10 minutes at room temperature. Following this time, the fix was aspirated and cells were washed 3 times with PBS. Cells were blocked using blocking solution (1% bovine serum albumin in PBS) for 30 minutes. After this time, the blocking reagent was aspirated and immunostaining reagent added. The immunostaining reagent consisted of a biotin conjugated-PD-L1 antibody (eBioscience) diluted in blocking buffer. Plates were sealed and kept at 4 C overnight. The following day, plates were washed 3 times with PBS followed by addition of a streptavidin-luciferase fusion protein (Invivogen) diluted in blocking buffer, for 1 h at room temperature. After this step, the plates were washed 3 times with PBS. After the final wash, PBS was aspirated and 30 uL of QUANTI-Luc™ (Invivogen) was added per well. Plates were immediately read on a plate reader (Victor 3V plate reader, 0.1s) and luciferase activity measured.
The raw PD-L1 intensity (the luciferase readout) corresponding to drug screen plates was normalized to blank plates containing only IFN-γ-treated wells, and the resulting ratio was used for the calculation of Z-scores.
(§2) These 4 HSP90 inhibitors were validated using the same experimental protocol employed above (using the SK-MEL-28 cells +/−IFN-γ in 384 well plates), with the only exception to the original assay design was that each drug was now tested in a 10-point dose response assay where the concentration of drug tested was 9.8-5000 nM (2 fold serial dilution). Cells were seeded and treated in quadruplicate. Viability was assessed after 48 h of treatment of four HSP 90 inhibitors and prior to harvesting the cells for testing PD-L1 signal, as described above.

[2] = tested on: IFN-γ-induced PD-L1 expression in SK-MEL-28 cells; test: High-content primary screen for small molecules that reduce IFN-γ induced PD-L1 expression; format: cell-based, human; details: SK-MEL-28, IFN-γ 50 ng/ml, drugs at 40, 480 and 5000 nM, viability >75%
Method: SK-MEL-28 cells (melanoma cell line; […] Cells were expanded in MEM (Corning) containing 10% FBS (Sigma) and 2 mM L-Glutamine. Frozen stocks of cells were prepared for direct use in the high-throughput screening (HTS) assay. Cells were harvested, pelleted and then resuspended in 95% FBS & 5% DMSO at a concentration 1×10^7 cells/ml. One ml aliquots were rate frozen to −80° C. at a rate of 1 degree per minute. These stocks were then transferred to vapor phase liquid nitrogen for long term storage. For screening, frozen cell vials were quickly thawed with continuous agitation in a at 37° C. water bath then re-suspended in the assay media at room temperature and centrifuged at 1,000 rpm for 5 minutes. The resulting pellet was re-suspended in appropriate volume and counted using an automated cell counter and diluted accordingly. Using a manually curated library of approximately 2500 individual drugs (2000 approved drugs, 500 unapproved drugs), drugs from the source plate were transferred to the destination plates (384-well assay plates—Corning #3712) using an ECHO 550 liquid handler (Labcyte). SK-MEL-28 cells (1750 cells per well in 30 μL of media), treated with IFN-g (50 ng/ml final) were added to these pre-formatted plates using a Multidrop™ Combi reagent dispenser (Thermofisher). […] Plates were centrifuged at 800 rpm for one minute before being incubated in a 5% CO2 humidified incubator at 37° C. After assessment for viability, plates were then prepared for immunostaining. Briefly, 16% paraformaldehyde (Electron Microscopy Sciences) was added to each well to a final concentration of 4%, for 10 minutes at room temperature. Following this time, the fix was aspirated and cells were washed 3 times with PBS. […] After this time, the blocking reagent was aspirated and immunostaining reagent added. […] Plates were sealed and kept at 4 C overnight. […] After this step, the plates were washed 3 times with PBS. After the final wash, PBS was aspirated and 30 uL of QUANTI-Luc™ (Invivogen) was added per well.

[3] = alamarBlue cell viability; format: cell-based; details: human, SK-MEL-28 cells, SK-MEL-28, highest concentration tested (1000 nM), IFN-γ 50 ng/ml
Method: as §1
44 h later, cell viability was determined using alamarBlue™ cell viability reagent (Thermofisher), according to the manufacturers protocol. Briefly, 3 μL of alamarBlue™ reagent was added to each well and plates were incubated for a further 4 h. The plates were read on a Victor ^3V plate reader (Perkin Elmer). Viability for each drug was expressed as a percentage by comparing drug-treated cells and untreated control cells (Set to 100%).
as §2

[4] = tested on: MV-4-11, MOLM-16, TUR, U937, KMS-28, OCI-LY-19 and Z138 cell lines; test: Synergy of MPC-0767 and venetoclax versus basal BCL-2 abundance; format: cell-based, human; details: 72 hours, CellTiter-Glo
Method: FIG. 12: Cell lines representing acute myeloid leukemia, multiple myeloma, diffuse large B cell lymphoma and mantle cell lymphoma were assayed for basal abundance of BCL-2 (Y axis) and a high/low threshold is shown by dashed line. Cell line sensitivity to venetoclax after 72 hour treatment as assessed by CellTiter-Glo (X axis) is denoted by EC50 values shown in parentheses. Following drug combination treatment of MPC-0767 and venetoclax, determination of synergy is shown by bar graphs in black (synergy observed) or grey (no synergy observed).
After 72 hour treatment with the indicated drug combinations, cell viability was assessed using CellTiter-Glo. […] The absolute EC75 for each single agent and drug combination was calculated using the R package DRC (Ritz et al., Dose-Response Analysis Using R. PLoS One. 2015. 10(12):e0146021; R Core Team, A language and environment for statistical computing. R Foundation for Statistical Computing, Vienna, Austria. 2017). […]
To test whether BCL-2 abundance is predictive of the synergy between HSP90 inhibitors and venetoclax observed here, we analyzed BCL-2 abundance in cell lines representing acute myeloid leukemia (MV-4-11, MOLM-16, TUR and U937), multiple myeloma (KMS-28), diffuse large B cell lymphoma (OCI-LY-19) and mantle cell lymphoma (Z138) under basal conditions using flow cytometry. […]

[5] = tested on: PD-L1 cell surface expression in AML cell lines (PL-21, TUR, MOLM-14, MV-4-11); test: Flow cytometry of IFN-γ-induced PD-L1 cell surface expression in AML cells; format: cell-based, human; details: 24 hours
Method: FIG. 13A-D: MPC-0767 blocks IFN-γ-induced PD-L1 expression in AML cells. A) PL-21, B) TUR, C) MOLM-14, D) MV-4-11 cells treated with MPC-0767 (2 μM), IFN-γ (50 ng/ml) or IFN-γ+MPC-0767 for 24 h before cells were harvested for assessment of PD-L1 cell surface expression.
To ascertain whether MPC-0767 can block IFN-γ-induced PD-L1 expression in AML cells, four AML cell lines harboring WT FLT3 (n=2) or FLT3-ITD (n=2) were treated with human IFN-γ (50 ng/ml) alone, MPC-0767 (2 μM) alone or the combination for 24 hours. Cells were harvested to determine PD-L1 cell surface expression by flow cytometry. Cells were also stained with a viability stain to gate on viable cells and exclude any dead cells. As shown in FIG. 13A-D, all cell lines induced PD-L1 cell surface expression in response to IFN-γ treatment (6-25 fold).

COc1c(C)cnc(Cn2cnc3c(Cl)nc(N)nc32)c1C [CNF-2024]
IFN-γ-induced PD-L1 signal [1]: blocked
hit in the primary screen (reduction of IFN-γ-induced PD-L1 expression) [2]: identified as hits

CN(C)c1cc2c(cc1Sc1nc3c(N)nccc3n1CCNCC(C)(C)C)OCO2 [CUDC-305]
viability at 48 h, 1 µM [3]: > 80%
concentration required to inhibit IFN-γ-induced PD-L1 expression compared with concentration required to affect cell proliferation [1]: far lower

COc1cccc(-c2cc(F)ccc2[C@H]2Cc3nc(N)nc(C)c3C(=O)N2)n1 [HSP-990]
IFN-γ-induced PD-L1 signal [1]: blocked
hit in the primary screen (reduction of IFN-γ-induced PD-L1 expression) [2]: identified as hits

C[C@H](N)C(=O)O[C@@H](C)C(=O)N1CCC(CCn2c(Sc3cc4c(cc3Br)OCO4)nc3c(N)ncnc32)CC1 [MPC-0767]
synergy with venetoclax ([4]; cell lines with high BCL-2 levels): observed in 4 out of 4 cell lines
synergy with venetoclax ([4]; three cell lines with low BCL-2 levels): no synergy was observed
basal PD-L1 cell surface expression ([5]; MPC-0767 2 μM alone, four AML cell lines): did not significantly reduce
reduction of IFN-γ-induced PD-L1 cell surface expression ([5]; MPC-0767 2 μM with IFN-γ 50 ng/ml, range over four AML cell lines): 43-83%

CC1(C)CC(=O)c2c(C(F)(F)F)nn(-c3ccc(C(N)=O)c(N[C@H]4CC[C@H](O)CC4)c3)c2C1 [PF0498473]
IFN-γ-induced PD-L1 signal [1]: blocked
hit in the primary screen (reduction of IFN-γ-induced PD-L1 expression) [2]: identified as hits

CC(C)c1cc(-c2n[nH]c(=O)n2-c2ccc3c(ccn3C)c2)c(O)cc1O [STA-9090]
viability at 48 h, 1 µM [3]: > 80%
concentration required to inhibit IFN-γ-induced PD-L1 expression compared with concentration required to affect cell proliferation [1]: far lower

CCc1cc(C(N)=O)ccc1-n1nc(C(C)C)c2c(-n3cnc(-c4cnn(C)c4)c3)ccnc21 [TAS-116]
viability at 48 h, 1 µM [3]: > 80%
concentration required to inhibit IFN-γ-induced PD-L1 expression compared with concentration required to affect cell proliferation [1]: far lower

CC[C@@H](C)Nc1cc(C(=O)NC2CC3CCC(C2)N3c2ccc(C(=O)C3CC3)cn2)c(C)cc1C(N)=O (stereo partly drawn) [XL-888]
viability at 48 h, 1 µM [3]: > 80%
concentration required to inhibit IFN-γ-induced PD-L1 expression compared with concentration required to affect cell proliferation [1]: far lower

C=CCNC1=C2C[C@@H](C)C[C@H](OC)[C@H](O)[C@@H](C)/C=C(\C)[C@H](OC(N)=O)[C@@H](OC)/C=C\C=C(/C)C(=O)NC(=CC1=O)C2=O [tanespimycin]
IFN-γ-induced PD-L1 signal [1]: blocked
hit in the primary screen (reduction of IFN-γ-induced PD-L1 expression) [2]: identified as hits

B1: IFN-γ: human interferon-gamma used to induce PD-L1 (protein, UniProt P01579 24-161, looked up)
Interferon gamma: QDPYVKEAENLKKYFNAGHSDVADNGTLFLGILKNWKEESDRKIMQSQIVSFYFKLFKNFKDDQSIQKSVETIKEDMNVKFFNSNKKKRDDFEKLTNYSVTDLNVQRKAIHELIQVMAELSPAAKTGKRKRSQMLFRG
induction of PD-L1 cell surface expression ([5]; human IFN-γ 50 ng/ml alone, range over four AML cell lines): 6-25 fold

Reference: US10799508B2, “Methods for treating cancer using HSP90 inhibitors” (AI Therapeutics, Inc., priority 2017, dated 2020)
